What was measured:
[1] = system: cocultures of keratinocytes and of melanocytes; assay: Cytotoxicity by estimating the incorporation of leucine in keratinocyte/melanocyte cocultures; assay type: cell-based
Experimental: (§1) The modulating effect with regard to melanogenesis of the compounds tested was measured according to the method described in Patent FR-A-2 734 825 and in the paper by R. Schmidt, P. Krien and M. Régnier, Anal. Biochem., 235(2), 113-18, 1996. This test is carried out on cocultures of keratinocytes and of melanocytes.
(§2) For the compound tested, the following were determined:
the cytotoxicity, by estimating the incorporation of leucine, […]

[2] = system: cocultures of keratinocytes and of melanocytes; assay: Inhibition of melanin synthesis (ratio of thiouracil to leucine incorporation) in keratinocyte/melanocyte cocultures; assay type: cell-based
Experimental: as §1, §2
the inhibitory activity with regard to the synthesis of melanin, by estimating the ratio of the incorporation of thiouracil to the incorporation of leucine, with respect to 100% of the control (the control corresponds to the test carried out without compound to be tested). The IC50 (concentration at which the synthesis of melanin is inhibited by 50%) values were determined.

| IC50 ([2]; ratio of thiouracil to leucine incorporation, with respect to 100% of the control, read-out: IC50 (concentration at which the synthesis of melanin is inhibited by 50%)) | SMILES | Cytotoxicity [1] | inhibition at 100 µM ([2]; at the concentration of 100 μM, read-out: melanin synthesis inhibited) |
| --- | --- | --- | --- |
| 35 µM | CC(=O)OC[C@H]1O[C@@H](n2cnc3c(N)ncnc32)[C@@H]2OC(C)(C)O[C@@H]21 [Compound H, 2′,3′-isopropylidene-5′-acetyladenosine] | No |  |
|  | Nc1ncnc2c1ncn2[C@@H]1O[C@H](CO)[C@@H](O)[C@H]1O [adenosine, reference compound] |  | 20% |
